ChEMBL document CHEMBL1201862, “PubChem BioAssay data set” (2004)
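Interpolation was linear, between the two tested concentrations surrounding the appropriate level; five concentrations were tested over 48 hours in 96-well plates. The concentration for 50% growth inhibition is given as GI50.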 The source made the active and inactive calls. Rule as the data show it: active = GI50 up to about 1.1 µM and inactive = higher.

Legend:
Assay in all cases: NCI-60 cell line screen, 48 h
DMS-114 = test system: DMS-114
HCT-15 = test system: HCT-15
M19-MEL = test system: M19-MEL
EKVX = test system: EKVX
SK-OV-3 = test system: SK-OV-3
SW-620 = test system: SW-620
IGROV-1 = test system: IGROV-1
SNB-78 = test system: SNB-78
SF-539 = test system: SF-539
DMS-273 = test system: DMS-273
SK-MEL-2 = test system: SK-MEL-2
U-251 = test system: U-251
XF498 = test system: XF498
HOP-62 = test system: HOP-62
SNB-75 = test system: SNB-75
MOLT-4 = test system: MOLT-4
HT-29 = test system: HT-29
HOP-92 = test system: HOP-92
NCI-H522 = test system: NCI-H522
OVCAR-3 = test system: OVCAR-3
KM-20L2 = test system: KM-20L2
M14 = test system: M14
RPMI-8226 = test system: RPMI-8226
UO-31 = test system: UO-31
SK-MEL-28 = test system: SK-MEL-28
LXFL 529 = test system: LXFL 529
DLD-1 = test system: DLD-1
A549 = test system: A549
SK-MEL-5 = test system: SK-MEL-5
NCI-H460 = test system: NCI-H460
ACHN = test system: ACHN
UACC-257 = test system: UACC-257
UACC-62 = test system: UACC-62
OVCAR-5 = test system: OVCAR-5
OVCAR-8 = test system: OVCAR-8
SN12C = test system: SN12C
SR = test system: SR
Malme-3M = test system: Malme-3M
SNB-19 = test system: SNB-19
LOX IMVI = test system: LOX IMVI
HOP-18 = test system: HOP-18
KM12 = test system: KM12
HCT-116 = test system: HCT-116
NCI-H23 = test system: NCI-H23
786-0 = test system: 786-0
SF-295 = test system: SF-295
RXF 393 = test system: RXF 393
SF-268 = test system: SF-268
COLO 205 = test system: COLO 205
HCC 2998 = test system: HCC 2998
NCI-H226 = test system: NCI-H226
TK-10 = test system: TK-10

Q: `COc1ccc(-c2ccccc2)c(N/N=C2\CCCNC2=O)c1` was tested. Which GI50 (DMS-114) did it give?
A: Its GI50 is > 100 µM (inactive).

Q: What about the GI50 (HCT-15) of the same compound?
A: The GI50 was over 100 µM.

Q: What about the GI50 (M19-MEL) of the same compound?
A: Its GI50 is > 100 µM (inactive).

Q: And the GI50 (EKVX)?
A: Its GI50 is > 100 µM (inactive).

Q: And the GI50 (SK-OV-3)?
A: The GI50 was 96.2 µM (inactive).

Q: And the GI50 (SW-620)?
A: Its GI50 is > 100 µM (inactive).

Q: And the GI50 (IGROV-1)?
A: The GI50 was > 100 µM (inactive).

Q: And the GI50 (SNB-78)?
A: Its GI50 is 93.5 µM (inactive).

Q: And the GI50 (SF-539)?
A: The GI50 was 50.7 µM (inactive).

Q: What about the GI50 (DMS-273) of the same compound?
A: The GI50 was > 100 µM (inactive).

Q: And the GI50 (SK-MEL-2)?
A: The GI50 was > 100 µM (inactive).

Q: What about the GI50 (U-251) of the same compound?
A: The GI50 was > 100 µM (inactive).

Q: And the GI50 (XF498)?
A: Its GI50 is 18.7 µM (inactive).

Q: And the GI50 (HOP-62)?
A: The GI50 was 19.6 µM (inactive).

Q: What about the GI50 (SNB-75) of the same compound?
A: The GI50 was 32.8 µM (inactive).

Q: What about the GI50 (MOLT-4) of the same compound?
A: Its GI50 is > 100 µM (inactive).

Q: What about the GI50 (HT-29) of the same compound?
A: The GI50 was > 100 µM (inactive).

Q: What about the GI50 (HOP-92) of the same compound?
A: The GI50 was > 100 µM (inactive).

Q: And the GI50 (NCI-H522)?
A: Its GI50 is > 100 µM (inactive).

Q: What about the GI50 (OVCAR-3) of the same compound?
A: Its GI50 is > 100 µM (inactive).

Q: What about the GI50 (KM-20L2) of the same compound?
A: Its GI50 is > 100 µM (inactive).

Q: What about the GI50 (M14) of the same compound?
A: The GI50 was > 100 µM (inactive).

Q: And the GI50 (RPMI-8226)?
A: Its GI50 is > 100 µM (inactive).

Q: What about the GI50 (UO-31) of the same compound?
A: Its GI50 is > 100 µM (inactive).

Q: And the GI50 (SK-MEL-28)?
A: Its GI50 is > 100 µM (inactive).

Q: What about the GI50 (LXFL 529) of the same compound?
A: Its GI50 is > 100 µM (inactive).

Q: What about the GI50 (DLD-1) of the same compound?
A: The GI50 was > 100 µM (inactive).

Q: What about the GI50 (A549) of the same compound?
A: The GI50 was 12.9 µM (inactive).

Q: And the GI50 (SK-MEL-5)?
A: Its GI50 is 28.2 µM (inactive).

Q: What about the GI50 (NCI-H460) of the same compound?
A: Its GI50 is > 100 µM (inactive).

Q: And the GI50 (ACHN)?
A: The GI50 was > 100 µM (inactive).

Q: What about the GI50 (UACC-257) of the same compound?
A: Its GI50 is > 100 µM (inactive).

Q: And the GI50 (UACC-62)?
A: The GI50 was 49 µM (inactive).

Q: What about the GI50 (OVCAR-5) of the same compound?
A: The GI50 was > 100 µM (inactive).

Q: And the GI50 (OVCAR-8)?
A: The GI50 was > 100 µM (inactive).

Q: What about the GI50 (SN12C) of the same compound?
A: Its GI50 is > 100 µM (inactive).

Q: What about the GI50 (SR) of the same compound?
A: Its GI50 is 3.55 µM (inactive).

Q: What about the GI50 (Malme-3M) of the same compound?
A: The GI50 was > 100 µM (inactive).

Q: What about the GI50 (SNB-19) of the same compound?
A: Its GI50 is 81.7 µM (inactive).

Q: And the GI50 (LOX IMVI)?
A: Its GI50 is > 100 µM (inactive).

Q: What about the GI50 (HOP-18) of the same compound?
A: Its GI50 is > 100 µM (inactive).

Q: And the GI50 (KM12)?
A: Its GI50 is > 100 µM (inactive).

Q: And the GI50 (HCT-116)?
A: Its GI50 is 13.1 µM (inactive).

Q: What about the GI50 (NCI-H23) of the same compound?
A: The GI50 was > 100 µM (inactive).

Q: What about the GI50 (786-0) of the same compound?
A: The GI50 was 85.7 µM (inactive).

Q: And the GI50 (SF-295)?
A: Its GI50 is > 100 µM (inactive).

Q: What about the GI50 (RXF 393) of the same compound?
A: Its GI50 is 11 µM (inactive).

Q: What about the GI50 (SF-268) of the same compound?
A: The GI50 was 43.5 µM (inactive).

Q: And the GI50 (COLO 205)?
A: The GI50 was > 100 µM (inactive).

Q: What about the GI50 (HCC 2998) of the same compound?
A: The GI50 was > 100 µM (inactive).

Q: What about the GI50 (NCI-H226) of the same compound?
A: Its GI50 is > 100 µM (inactive).

Q: What about the GI50 (TK-10) of the same compound?
A: The GI50 was > 100 µM (inactive).
